Tests used:
Experiment in all cases: relative viability (nuclei count vs DMSO), 5 days (fraction); higher = more cells survive
IPA-3 + Navitoclax = compound: C1=CC=C2C(=C1)C=CC(=C2SSC3=C(C=CC4=CC=CC=C43)O)O [IPA-3] + CC1(C)CCC(c2ccc(Cl)cc2)=C(CN2CCN(c3ccc(C(=O)NS(=O)(=O)c4ccc(N[C@H](CCN5CCOCC5)CSc5ccccc5)c(S(=O)(=O)C(F)(F)F)c4)cc3)CC2)C1 [Navitoclax] (partner 0.5 µM)
Method in brief: (§1)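 For relative viability, nuclei counts in treated wells were divided by those in vehicle wells. Lung cancer cell lines had been pin-tool dosed in 1536-well plates the day after seeding and cultured for 5 days, then fixed and stained in one step (final 0.05% Triton X-100, 1% formaldehyde, 1 ug/ml Hoechst) and imaged at 4×. Doses were one drug alone or a fixed anchor-drug dose plus five library-drug doses (not always all listed) in √10 steps, and values are duplicate-plate medians.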

IPA-3 + Phenformin = compound: C1=CC=C2C(=C1)C=CC(=C2SSC3=C(C=CC4=CC=CC=C43)O)O [IPA-3] + N=C(N)NC(=N)NCCc1ccccc1 [Phenformin] (partner 250 µM)
Method in brief: as §1

Doramapimod + Trametinib = compound: Cc1ccc(-n2nc(C(C)(C)C)cc2NC(=O)Nc2ccc(OCCN3CCOCC3)c3ccccc23)cc1 [Doramapimod] + CC(=O)Nc1cccc(-n2c(=O)n(C3CC3)c(=O)c3c(Nc4ccc(I)cc4F)n(C)c(=O)c(C)c32)c1 [Trametinib] (partner 0.02 µM)
Method in brief: as §1

Doramapimod + Luminespib = compound: Cc1ccc(-n2nc(C(C)(C)C)cc2NC(=O)Nc2ccc(OCCN3CCOCC3)c3ccccc23)cc1 [Doramapimod] + CCNC(=O)c1noc(-c2cc(C(C)C)c(O)cc2O)c1-c1ccc(CN2CCOCC2)cc1 [Luminespib] (partner 0.01 µM)
Method in brief: as §1

Cell Line: NCI-H2170
- relative viability (IPA-3 + Navitoclax; first compound 0.2 µM): 0.702
- relative viability (IPA-3 + Navitoclax; first compound 0.6325 µM): 0.614
- relative viability (IPA-3 + Navitoclax; first compound 2 µM): 0.552
- relative viability (IPA-3 + Navitoclax; first compound 6.325 µM): 0.507
- relative viability (IPA-3 + Navitoclax; first compound 20 µM): 0.504
- relative viability (IPA-3 + Phenformin; first compound 0.2 µM): 0.438
- relative viability (IPA-3 + Phenformin; first compound 0.6325 µM): 0.358
- relative viability (IPA-3 + Phenformin; first compound 2 µM): 0.457
- relative viability (IPA-3 + Phenformin; first compound 6.325 µM): 0.356
- relative viability (IPA-3 + Phenformin; first compound 20 µM): 0.481
- relative viability (Doramapimod + Trametinib; first compound 0.02 µM): 0.854
- relative viability (Doramapimod + Trametinib; first compound 0.06325 µM): 1.02
- relative viability (Doramapimod + Trametinib; first compound 0.2 µM): 0.934
- relative viability (Doramapimod + Trametinib; first compound 0.6325 µM): 0.981
- relative viability (Doramapimod + Trametinib; first compound 2 µM): 0.825
- relative viability (Doramapimod + Luminespib; first compound 0.02 µM): 0.649
- relative viability (Doramapimod + Luminespib; first compound 0.06325 µM): 0.754
- relative viability (Doramapimod + Luminespib; first compound 0.2 µM): 0.64
- relative viability (Doramapimod + Luminespib; first compound 0.6325 µM): 0.825
- relative viability (Doramapimod + Luminespib; first compound 2 µM): 0.638

Cell Line: HCC-366
- relative viability (IPA-3 + Navitoclax; first compound 0.2 µM): 1.18
- relative viability (IPA-3 + Navitoclax; first compound 0.6325 µM): 1.01
- relative viability (IPA-3 + Navitoclax; first compound 2 µM): 1.19
- relative viability (IPA-3 + Navitoclax; first compound 6.325 µM): 1.03
- relative viability (IPA-3 + Navitoclax; first compound 20 µM): 1.18
- relative viability (IPA-3 + Phenformin; first compound 0.2 µM): 0.715
- relative viability (IPA-3 + Phenformin; first compound 0.6325 µM): 0.584
- relative viability (IPA-3 + Phenformin; first compound 2 µM): 0.636
- relative viability (IPA-3 + Phenformin; first compound 6.325 µM): 0.567
- relative viability (IPA-3 + Phenformin; first compound 20 µM): 0.752
- relative viability (Doramapimod + Trametinib; first compound 0.02 µM): 0.309
- relative viability (Doramapimod + Trametinib; first compound 0.06325 µM): 0.248
- relative viability (Doramapimod + Trametinib; first compound 0.2 µM): 0.259
- relative viability (Doramapimod + Trametinib; first compound 0.6325 µM): 0.263
- relative viability (Doramapimod + Trametinib; first compound 2 µM): 0.212

Cell Line: NCI-H2347
- relative viability (IPA-3 + Navitoclax; first compound 0.2 µM): 0.962
- relative viability (IPA-3 + Navitoclax; first compound 0.6325 µM): 0.792
- relative viability (IPA-3 + Navitoclax; first compound 2 µM): 0.633
- relative viability (IPA-3 + Navitoclax; first compound 6.325 µM): 0.88
- relative viability (IPA-3 + Navitoclax; first compound 20 µM): 0.988
- relative viability (IPA-3 + Phenformin; first compound 0.2 µM): 0.334
- relative viability (IPA-3 + Phenformin; first compound 0.6325 µM): 0.448
- relative viability (IPA-3 + Phenformin; first compound 2 µM): 0.33
- relative viability (IPA-3 + Phenformin; first compound 6.325 µM): 0.406
- relative viability (IPA-3 + Phenformin; first compound 20 µM): 0.736
- relative viability (Doramapimod + Trametinib; first compound 0.02 µM): 0.281
- relative viability (Doramapimod + Trametinib; first compound 0.06325 µM): 0.23
- relative viability (Doramapimod + Trametinib; first compound 0.2 µM): 0.249
- relative viability (Doramapimod + Trametinib; first compound 0.6325 µM): 0.26
- relative viability (Doramapimod + Trametinib; first compound 2 µM): 0.261
- relative viability (Doramapimod + Luminespib; first compound 0.02 µM): 0.0162
- relative viability (Doramapimod + Luminespib; first compound 0.2 µM): 0.601
- relative viability (Doramapimod + Luminespib; first compound 0.6325 µM): 0.5
- relative viability (Doramapimod + Luminespib; first compound 2 µM): 0.492

Cell Line: COR-L 105
- relative viability (IPA-3 + Navitoclax; first compound 0.2 µM): 0.866
- relative viability (IPA-3 + Navitoclax; first compound 0.6325 µM): 1.07
- relative viability (IPA-3 + Navitoclax; first compound 2 µM): 0.925
- relative viability (IPA-3 + Navitoclax; first compound 6.325 µM): 0.644
- relative viability (IPA-3 + Navitoclax; first compound 20 µM): 0.782
- relative viability (IPA-3 + Phenformin; first compound 0.2 µM): 0.634
- relative viability (IPA-3 + Phenformin; first compound 0.6325 µM): 0.445
- relative viability (IPA-3 + Phenformin; first compound 2 µM): 0.49
- relative viability (IPA-3 + Phenformin; first compound 6.325 µM): 0.418
- relative viability (IPA-3 + Phenformin; first compound 20 µM): 0.55
- relative viability (Doramapimod + Trametinib; first compound 0.02 µM): 0.391
- relative viability (Doramapimod + Trametinib; first compound 0.06325 µM): 0.419
- relative viability (Doramapimod + Trametinib; first compound 0.2 µM): 0.478
- relative viability (Doramapimod + Trametinib; first compound 0.6325 µM): 0.462
- relative viability (Doramapimod + Trametinib; first compound 2 µM): 0.318
- relative viability (Doramapimod + Luminespib; first compound 0.02 µM): 0.883
- relative viability (Doramapimod + Luminespib; first compound 0.06325 µM): 0.73
- relative viability (Doramapimod + Luminespib; first compound 0.2 µM): 0.645
- relative viability (Doramapimod + Luminespib; first compound 0.6325 µM): 0.851
- relative viability (Doramapimod + Luminespib; first compound 2 µM): 0.719

Cell Line: 201T
- relative viability (IPA-3 + Navitoclax; first compound 0.2 µM): 1.21
- relative viability (IPA-3 + Navitoclax; first compound 0.6325 µM): 1.19
- relative viability (IPA-3 + Navitoclax; first compound 2 µM): 1.21
- relative viability (IPA-3 + Navitoclax; first compound 6.325 µM): 1.22
- relative viability (IPA-3 + Navitoclax; first compound 20 µM): 1.18
- relative viability (IPA-3 + Phenformin; first compound 0.2 µM): 0.452
- relative viability (IPA-3 + Phenformin; first compound 0.6325 µM): 0.454
- relative viability (IPA-3 + Phenformin; first compound 2 µM): 0.484
- relative viability (IPA-3 + Phenformin; first compound 6.325 µM): 0.461
- relative viability (IPA-3 + Phenformin; first compound 20 µM): 0.469
- relative viability (Doramapimod + Trametinib; first compound 0.02 µM): 0.736
- relative viability (Doramapimod + Trametinib; first compound 0.06325 µM): 0.715
- relative viability (Doramapimod + Trametinib; first compound 0.2 µM): 0.729
- relative viability (Doramapimod + Trametinib; first compound 0.6325 µM): 0.772
- relative viability (Doramapimod + Trametinib; first compound 2 µM): 0.71
- relative viability (Doramapimod + Luminespib; first compound 0.02 µM): 1.01
- relative viability (Doramapimod + Luminespib; first compound 0.06325 µM): 1.01
- relative viability (Doramapimod + Luminespib; first compound 0.2 µM): 0.99
- relative viability (Doramapimod + Luminespib; first compound 0.6325 µM): 1.18
- relative viability (Doramapimod + Luminespib; first compound 2 µM): 1

Cell Line: NCI-H2126
- relative viability (IPA-3 + Navitoclax; first compound 0.2 µM): 0.861
- relative viability (IPA-3 + Navitoclax; first compound 0.6325 µM): 0.816
- relative viability (IPA-3 + Navitoclax; first compound 2 µM): 0.828
- relative viability (IPA-3 + Navitoclax; first compound 6.325 µM): 0.892
- relative viability (IPA-3 + Navitoclax; first compound 20 µM): 0.891
- relative viability (IPA-3 + Phenformin; first compound 0.2 µM): 0.57
- relative viability (IPA-3 + Phenformin; first compound 0.6325 µM): 0.517
- relative viability (IPA-3 + Phenformin; first compound 2 µM): 0.506
- relative viability (IPA-3 + Phenformin; first compound 6.325 µM): 0.516
- relative viability (IPA-3 + Phenformin; first compound 20 µM): 0.629
- relative viability (Doramapimod + Trametinib; first compound 0.02 µM): 0.551
- relative viability (Doramapimod + Trametinib; first compound 0.06325 µM): 0.546
- relative viability (Doramapimod + Trametinib; first compound 0.2 µM): 0.571
- relative viability (Doramapimod + Trametinib; first compound 0.6325 µM): 0.637
- relative viability (Doramapimod + Trametinib; first compound 2 µM): 0.524
- relative viability (Doramapimod + Luminespib; first compound 0.02 µM): 0.832
- relative viability (Doramapimod + Luminespib; first compound 0.06325 µM): 0.906
- relative viability (Doramapimod + Luminespib; first compound 0.2 µM): 0.964
- relative viability (Doramapimod + Luminespib; first compound 0.6325 µM): 1.03
- relative viability (Doramapimod + Luminespib; first compound 2 µM): 0.702

Cell Line: LC-2-ad
- relative viability (IPA-3 + Navitoclax; first compound 0.2 µM): 0.526
- relative viability (IPA-3 + Navitoclax; first compound 0.6325 µM): 0.334
- relative viability (IPA-3 + Navitoclax; first compound 2 µM): 0.444
- relative viability (IPA-3 + Navitoclax; first compound 6.325 µM): 0.454
- relative viability (IPA-3 + Navitoclax; first compound 20 µM): 0.685
- relative viability (IPA-3 + Phenformin; first compound 0.2 µM): 0.605
- relative viability (IPA-3 + Phenformin; first compound 0.6325 µM): 0.566
- relative viability (IPA-3 + Phenformin; first compound 2 µM): 0.556
- relative viability (IPA-3 + Phenformin; first compound 6.325 µM): 0.595
- relative viability (IPA-3 + Phenformin; first compound 20 µM): 0.666
- relative viability (Doramapimod + Trametinib; first compound 0.02 µM): 0.992
- relative viability (Doramapimod + Trametinib; first compound 0.06325 µM): 0.92
- relative viability (Doramapimod + Trametinib; first compound 0.2 µM): 0.906
- relative viability (Doramapimod + Trametinib; first compound 0.6325 µM): 0.981
- relative viability (Doramapimod + Trametinib; first compound 2 µM): 0.855
- relative viability (Doramapimod + Luminespib; first compound 0.02 µM): 1.02
- relative viability (Doramapimod + Luminespib; first compound 0.06325 µM): 1.03
- relative viability (Doramapimod + Luminespib; first compound 0.2 µM): 1.09
- relative viability (Doramapimod + Luminespib; first compound 0.6325 µM): 1.15
- relative viability (Doramapimod + Luminespib; first compound 2 µM): 0.984

Cell Line: NCI-H2085
- relative viability (IPA-3 + Navitoclax; first compound 0.2 µM): 1.15
- relative viability (IPA-3 + Navitoclax; first compound 0.6325 µM): 0.985
- relative viability (IPA-3 + Navitoclax; first compound 2 µM): 1.25
- relative viability (IPA-3 + Navitoclax; first compound 6.325 µM): 1.14
- relative viability (IPA-3 + Navitoclax; first compound 20 µM): 1.18
- relative viability (IPA-3 + Phenformin; first compound 0.2 µM): 0.82
- relative viability (IPA-3 + Phenformin; first compound 0.6325 µM): 0.651
- relative viability (IPA-3 + Phenformin; first compound 2 µM): 0.744
- relative viability (IPA-3 + Phenformin; first compound 6.325 µM): 0.678
- relative viability (IPA-3 + Phenformin; first compound 20 µM): 0.585
- relative viability (Doramapimod + Trametinib; first compound 0.02 µM): 0.496
- relative viability (Doramapimod + Trametinib; first compound 0.06325 µM): 0.494
- relative viability (Doramapimod + Trametinib; first compound 0.2 µM): 0.502
- relative viability (Doramapimod + Trametinib; first compound 0.6325 µM): 0.471
- relative viability (Doramapimod + Trametinib; first compound 2 µM): 0.494
- relative viability (Doramapimod + Luminespib; first compound 0.02 µM): 0.411
- relative viability (Doramapimod + Luminespib; first compound 0.06325 µM): 0.601
- relative viability (Doramapimod + Luminespib; first compound 0.2 µM): 0.409
- relative viability (Doramapimod + Luminespib; first compound 0.6325 µM): 0.46
- relative viability (Doramapimod + Luminespib; first compound 2 µM): 0.463

— the supplement of paper PMC10307832
